# Results taken from the NIST ThermoML archive (doi:10.1021/je025629r).
# Numbers after ± are expanded uncertainties.
# Settings: 298.2 K; 101.33 kPa; Liquid; vibrating tube
row,SMILES,mass density [kg/m3]
1,CCCCCCCC[n+]1ccn(C)c1.[Cl-] [1-methyl-3-octylimidazolium chloride],1010.4 ± 1
2,CCCCCCCCCCCC [dodecane],746.6 ± 0.4
3,CCO [ethanol],784.93 ± 0.42
4,CCCCCCC [heptane],682.3 ± 0.4

# Next, values leading:
row,mass density [kg/m3],SMILES
1,770.3 ± 0.4,CCCCCCCCCCCCCCCC [hexadecane]
2,786.27 ± 0.42,CO [methanol]
